# US6706740B2, “Fungicidal heterocyclic aromatic amides and their compositions, methods of use and preparation” (Dow AgroSciences LLC, priority 1999, dated 2004)
# System: Puccinia recondita—PUCCRT
# Assay: Brown Rust of Wheat, in vivo whole plant, 24 Hour Protectant
# Details: 100 ppm spray, wheat, 24 hour protectant, % control of fungal infection vs untreated plants
row,SMILES,PUCCRT in vivo 1 Day Protectant
1,COc1ccnc(C(=O)N[C@H]2COC(=O)[C@H](Cc3ccccc3)[C@@H](OC(=O)C(C)C)[C@H](C)OC2=O)c1OC(=O)OCc1ccccc1 [Compound 695],+ +

# Same assay, conditions: Puccinia; 100 ppm spray, 24 hour protectant, wheat; control of fungal infection vs untreated plants; read-out: PUCCRT in vivo 1 Day Protectant
row,SMILES,pest or weed control at 100 ppm
1,COc1ccnc(C(=O)N[C@H]2CC[C@H]3C4CCC(CC4)[C@H]3C2=O)c1O [Compound 292],25 to 74%
2,COc1ccnc(C(=O)N[C@@H]2CC3CC2[C@@H](C(=O)OCCc2ccccc2)[C@H]3C(=O)OCC(C)C)c1O (stereo partly shown) [Compound 301],25 to 74%
3,COc1ccnc(C(=O)NC2CCC[C@H]3CC(CCC=C(C)C)=CC[C@@H]23)c1O (stereo partly shown) [Compound 286],< 25%

# System: Ustilago maydis (USTIMA)
# Assay: microbe, parasite or virus in culture
# Format: cell-based
# Details: Mycosarcoma maydis, read-out: USTIMA in vitro Growth Inhibition
row,SMILES,inhibition at 25 ppm
1,COc1ccnc(C(=O)N[C@H]2CC[C@H]3C4CCC(CC4)[C@H]3C2=O)c1O [Compound 292],< 80%
2,COc1ccnc(C(=O)N[C@H]2COC(=O)[C@H](Cc3ccccc3)[C@@H](OC(=O)C(C)C)[C@H](C)OC2=O)c1OC(=O)OCc1ccccc1 [Compound 695],< 80%
3,COc1ccnc(C(=O)N[C@@H]2CC3CC2[C@@H](C(=O)OCCc2ccccc2)[C@H]3C(=O)OCC(C)C)c1O (stereo partly shown) [Compound 301],< 80%
4,COc1ccnc(C(=O)NC2CCC[C@H]3CC(CCC=C(C)C)=CC[C@@H]23)c1O (stereo partly shown) [Compound 286],< 80%

# System: Mycosphaerella graminicola (Septoria tritici—SEPTTR)
# Assay: In vitro fungal growth inhibition, Mycosphaerella graminicola (SEPTTR)
# Format: cell-based
# Details: Zymoseptoria tritici; 25 ppm in growth medium; read-out: SEPTTR in vitro Growth Inhibition
row,SMILES,inhibition at 25 ppm
1,COc1ccnc(C(=O)N[C@H]2CC[C@H]3C4CCC(CC4)[C@H]3C2=O)c1O [Compound 292],< 80%
2,COc1ccnc(C(=O)N[C@H]2COC(=O)[C@H](Cc3ccccc3)[C@@H](OC(=O)C(C)C)[C@H](C)OC2=O)c1OC(=O)OCc1ccccc1 [Compound 695],< 80%
3,COc1ccnc(C(=O)N[C@@H]2CC3CC2[C@@H](C(=O)OCCc2ccccc2)[C@H]3C(=O)OCC(C)C)c1O (stereo partly shown) [Compound 301],< 80%
4,COc1ccnc(C(=O)NC2CCC[C@H]3CC(CCC=C(C)C)=CC[C@@H]23)c1O (stereo partly shown) [Compound 286],< 80%

# System: Leptosphaeria nodorum—LEPTNO
# Assay: Glume Blotch of Wheat, in vivo whole plant, 24 Hour Protectant
# Details: 100 ppm spray, 24 hour protectant, wheat; control of fungal infection vs untreated plants
row,SMILES,LEPTNO in vivo 1 Day Protectant
1,COc1ccnc(C(=O)N[C@H]2CC[C@H]3C4CCC(CC4)[C@H]3C2=O)c1O [Compound 292],+ +

# Same assay, conditions: 100 ppm spray, wheat, 24 hour protectant, % control of fungal infection vs untreated plants
row,SMILES,LEPTNO in vivo 1 Day Protectant
1,COc1ccnc(C(=O)N[C@H]2COC(=O)[C@H](Cc3ccccc3)[C@@H](OC(=O)C(C)C)[C@H](C)OC2=O)c1OC(=O)OCc1ccccc1 [Compound 695],+ +

# Same assay, conditions: Leptosphaeria; 100 ppm spray, 24 hour protectant, wheat; control of fungal infection vs untreated plants; read-out: LEPTNO in vivo 1 Day Protectant
row,SMILES,pest or weed control at 100 ppm
1,COc1ccnc(C(=O)N[C@@H]2CC3CC2[C@@H](C(=O)OCCc2ccccc2)[C@H]3C(=O)OCC(C)C)c1O (stereo partly shown) [Compound 301],25 to 74%
2,COc1ccnc(C(=O)NC2CCC[C@H]3CC(CCC=C(C)C)=CC[C@@H]23)c1O (stereo partly shown) [Compound 286],25 to 74%

# System: Phytophthora infestans (PHYTIN)
# Assay: microbe, parasite or virus in culture
# Format: cell-based
# Details: Phytophthora infestans, read-out: PHYTIN in vitro Growth Inhibition
row,SMILES,inhibition at 25 ppm
1,COc1ccnc(C(=O)N[C@H]2CC[C@H]3C4CCC(CC4)[C@H]3C2=O)c1O [Compound 292],< 80%
2,COc1ccnc(C(=O)N[C@H]2COC(=O)[C@H](Cc3ccccc3)[C@@H](OC(=O)C(C)C)[C@H](C)OC2=O)c1OC(=O)OCc1ccccc1 [Compound 695],< 80%
3,COc1ccnc(C(=O)N[C@@H]2CC3CC2[C@@H](C(=O)OCCc2ccccc2)[C@H]3C(=O)OCC(C)C)c1O (stereo partly shown) [Compound 301],< 80%
4,COc1ccnc(C(=O)NC2CCC[C@H]3CC(CCC=C(C)C)=CC[C@@H]23)c1O (stereo partly shown) [Compound 286],< 80%

# System: Erysiphe graminis—ERYSGT
# Assay: Powdery Mildew of Wheat, in vivo whole plant, 24 Hour Protectant
# Details: Erysiphe; 100 ppm spray, 24 hour protectant, wheat; control of fungal infection vs untreated plants; read-out: ERYSGT in vivo 1 Day Protectant
row,SMILES,pest or weed control at 100 ppm
1,COc1ccnc(C(=O)N[C@H]2CC[C@H]3C4CCC(CC4)[C@H]3C2=O)c1O [Compound 292],< 25%
2,COc1ccnc(C(=O)N[C@@H]2CC3CC2[C@@H](C(=O)OCCc2ccccc2)[C@H]3C(=O)OCC(C)C)c1O (stereo partly shown) [Compound 301],< 25%
3,COc1ccnc(C(=O)NC2CCC[C@H]3CC(CCC=C(C)C)=CC[C@@H]23)c1O (stereo partly shown) [Compound 286],< 25%

# Same assay, conditions: Erysiphe; 100 ppm spray, wheat, 24 hour protectant, % control of fungal infection vs untreated plants; read-out: ERYSGT in vivo 1 Day Protectant
row,SMILES,pest or weed control at 100 ppm
1,COc1ccnc(C(=O)N[C@H]2COC(=O)[C@H](Cc3ccccc3)[C@@H](OC(=O)C(C)C)[C@H](C)OC2=O)c1OC(=O)OCc1ccccc1 [Compound 695],< 25%

# System: Phytophthora infestans—PHYTIN
# Assay: whole plant or invertebrate
# Format: in vivo
# Details: Phytophthora, in Solanum lycopersicum, 24 h, read-out: PHYTIN in vivo 1 Day Protectant
row,SMILES,pest or weed control at 100 ppm
1,COc1ccnc(C(=O)N[C@H]2CC[C@H]3C4CCC(CC4)[C@H]3C2=O)c1O [Compound 292],< 25%
2,COc1ccnc(C(=O)N[C@H]2COC(=O)[C@H](Cc3ccccc3)[C@@H](OC(=O)C(C)C)[C@H](C)OC2=O)c1OC(=O)OCc1ccccc1 [Compound 695],< 25%
3,COc1ccnc(C(=O)N[C@@H]2CC3CC2[C@@H](C(=O)OCCc2ccccc2)[C@H]3C(=O)OCC(C)C)c1O (stereo partly shown) [Compound 301],< 25%
4,COc1ccnc(C(=O)NC2CCC[C@H]3CC(CCC=C(C)C)=CC[C@@H]23)c1O (stereo partly shown) [Compound 286],< 25%

# System: Magnaporthe grisea (Pyricularia oryzae—PYRIOR)
# Assay: microbe, parasite or virus in culture
# Format: cell-based
# Details: Pyricularia oryzae, read-out: PYRIOR in vitro Growth Inhibition
row,SMILES,inhibition at 25 ppm
1,COc1ccnc(C(=O)N[C@H]2CC[C@H]3C4CCC(CC4)[C@H]3C2=O)c1O [Compound 292],< 80%
2,COc1ccnc(C(=O)N[C@H]2COC(=O)[C@H](Cc3ccccc3)[C@@H](OC(=O)C(C)C)[C@H](C)OC2=O)c1OC(=O)OCc1ccccc1 [Compound 695],> 80%
3,COc1ccnc(C(=O)N[C@@H]2CC3CC2[C@@H](C(=O)OCCc2ccccc2)[C@H]3C(=O)OCC(C)C)c1O (stereo partly shown) [Compound 301],> 80%
4,COc1ccnc(C(=O)NC2CCC[C@H]3CC(CCC=C(C)C)=CC[C@@H]23)c1O (stereo partly shown) [Compound 286],< 80%

# System: Stagonospora nodorum (Leptosphaeria nodorum—LEPTNO)
# Assay: In vitro fungal growth inhibition, Stagonospora nodorum (LEPTNO)
# Format: cell-based
# Details: Leptosphaeria; 25 ppm in growth medium; read-out: LEPTNO in vitro Growth Inhibition
row,SMILES,inhibition at 25 ppm
1,COc1ccnc(C(=O)N[C@H]2CC[C@H]3C4CCC(CC4)[C@H]3C2=O)c1O [Compound 292],> 80%
2,COc1ccnc(C(=O)N[C@H]2COC(=O)[C@H](Cc3ccccc3)[C@@H](OC(=O)C(C)C)[C@H](C)OC2=O)c1OC(=O)OCc1ccccc1 [Compound 695],< 80%
3,COc1ccnc(C(=O)N[C@@H]2CC3CC2[C@@H](C(=O)OCCc2ccccc2)[C@H]3C(=O)OCC(C)C)c1O (stereo partly shown) [Compound 301],> 80%
4,COc1ccnc(C(=O)NC2CCC[C@H]3CC(CCC=C(C)C)=CC[C@@H]23)c1O (stereo partly shown) [Compound 286],> 80%

# System: Rhizoctonia solani (RHIZSO)
# Assay: microbe, parasite or virus in culture
# Format: cell-based
# Details: Rhizoctonia solani, read-out: RHIZSO in vitro Growth Inhibition
row,SMILES,inhibition at 25 ppm
1,COc1ccnc(C(=O)N[C@H]2CC[C@H]3C4CCC(CC4)[C@H]3C2=O)c1O [Compound 292],< 80%
2,COc1ccnc(C(=O)N[C@H]2COC(=O)[C@H](Cc3ccccc3)[C@@H](OC(=O)C(C)C)[C@H](C)OC2=O)c1OC(=O)OCc1ccccc1 [Compound 695],< 80%
3,COc1ccnc(C(=O)N[C@@H]2CC3CC2[C@@H](C(=O)OCCc2ccccc2)[C@H]3C(=O)OCC(C)C)c1O (stereo partly shown) [Compound 301],> 80%
4,COc1ccnc(C(=O)NC2CCC[C@H]3CC(CCC=C(C)C)=CC[C@@H]23)c1O (stereo partly shown) [Compound 286],> 80%
